Read-outs that look alike come from different tables or passages of the source.
Columns and labels:
K. pneumoniae NCTC-9632 = assay: Antimicrobial activity test: MIC by the agar plate dilution method, K. pneumoniae NCTC-9632; format: cell-based; details: inoculum 1×10^6 cells/ml
Description: (§1) In order to investigate the in vitro activity of the under-mentioned compounds against various bacteria, the minimal inhibitory concentration (MIC) values were determined by the agar plate dilution method [see Chemotherapy, 22, 1126-1128 (1974)].
(§2) Each test inoculum was adjusted to 1×10^6 cells/ml (O.D., 600 mμ: 0.07-0.16).

S. marcescens IFO-12648 = assay: Antimicrobial activity test: MIC by the agar plate dilution method, S. marcescens IFO-12648; format: cell-based
Description: as §1, §2

P. mirabilis 1287 = assay: Antimicrobial activity test: MIC by the agar plate dilution method, P. mirabilis 1287; format: cell-based
Description: as §1, §2

E. coli No. 29 = assay: Antimicrobial activity test: MIC by the agar plate dilution method, E. coli No. 29; format: cell-based
Description: as §1, §2

M. morganii ATCC-25830 = assay: Antimicrobial activity test: MIC by the agar plate dilution method, M. morganii ATCC-25830; format: cell-based; details: inoculum 1×10^6 cells/ml
Description: as §1, §2

P. aeruginosa NCTC-10490 = assay: Antimicrobial activity test: MIC by the agar plate dilution method, P. aeruginosa NCTC-10490; format: cell-based; details: inoculum 1×10^6 cells/ml
Description: as §1, §2

S. aureus FDA-209-p = assay: Antimicrobial activity test: MIC by the agar plate dilution method, S. aureus FDA-209-p; format: cell-based, Staphylococcus aureus; details: inoculum 1×10^6 cells/ml
Description: as §1, §2

[1] = P. mirabilis 1287, inoculum 1×10^6 cells/ml
[2] = E. coli No. 29, inoculum 1×10^6 cells/ml
[3] = S. marcescens IFO-12648, inoculum 1×10^6 cells/ml

Substance: 7-[2-(2-Aminothiazol-4-yl)-2-[(2-butenyl)oxyimino]acetamido]-3-[(1,3,4-thiadiazol-2-yl)thiomethyl]-Δ^3 -O-2-isocephem-4-carboxylic acid trifluoroacetate (syn-isomer) [Example 38]
- MIC (K. pneumoniae NCTC-9632): 0.2 µg/mL
- MIC (S. marcescens IFO-12648): 0.78 µg/mL
- MIC (P. mirabilis 1287; [1]): 0.2 µg/mL
- MIC (E. coli No. 29; [2]): 0.1 µg/mL
- MIC (M. morganii ATCC-25830): 0.39 µg/mL
- MIC (P. aeruginosa NCTC-10490): 1.56 µg/mL
- MIC (S. aureus FDA-209-p): 0.39 µg/mL

Substance: 7-[2-(2-Aminothiazol-4-yl)-2-[(3-butenyl)oxyimino]acetamido]-3-[(1,3,4-thiadiazol-2-yl)thiomethyl-]-Δ^3 -O-2-isocephem-4-carboxylic acid trifluoroacetate (syn-isomer) [Example 40]
- MIC (K. pneumoniae NCTC-9632): 3.13 µg/mL
- MIC (S. marcescens IFO-12648; [3]): 12.5 µg/mL
- MIC (P. mirabilis 1287; [1]): 6.25 µg/mL
- MIC (E. coli No. 29): 3.13 µg/mL
- MIC (M. morganii ATCC-25830): 3.13 µg/mL
- MIC (P. aeruginosa NCTC-10490): 25 µg/mL
- MIC (S. aureus FDA-209-p): 6.25 µg/mL

Substance: 7-[2-(2-Chloroacetamidothiazol-4-yl)-2-allyloxyiminoacetamido]-3-[(1,3,4-thiadiazol-2-yl)thiomethyl]-Δ^3 -O-2-isocephem-4-carboxylic acid (syn-isomer) [Example 15]
- MIC (K. pneumoniae NCTC-9632): 0.1 µg/mL
- MIC (S. marcescens IFO-12648; [3]): 0.1 µg/mL
- MIC (P. mirabilis 1287; [1]): ≤ 0.025 µg/mL
- MIC (E. coli No. 29; [2]): ≤ 0.025 µg/mL
- MIC (M. morganii ATCC-25830): ≤ 0.025 µg/mL
- MIC (P. aeruginosa NCTC-10490): 0.78 µg/mL
- MIC (S. aureus FDA-209-p): 0.39 µg/mL

Substance: 7-[2-(2-Chloroacetamidothiazol-4-yl)-2-cyclopentyloxyiminoacetamido]-3-[(1,3,4-thiadiazol-2-yl)thiomethyl]-Δ^3 -O-2-isocephem-4-carboxylic acid (syn-isomer) [Example 26]
- MIC (K. pneumoniae NCTC-9632): 0.2 µg/mL
- MIC (S. marcescens IFO-12648): 0.39 µg/mL
- MIC (P. mirabilis 1287; [1]): ≤ 0.025 µg/mL
- MIC (E. coli No. 29; [2]): 0.05 µg/mL
- MIC (M. morganii ATCC-25830): 0.05 µg/mL
- MIC (P. aeruginosa NCTC-10490): 0.39 µg/mL
- MIC (S. aureus FDA-209-p): 0.2 µg/mL

Substance: 7-[2-(2-Chloroacetamidothiazol-4-yl)-2-methoxyiminoacetamido]-3-[(1,4,5,6-tetrahydro-4-methyl-5,6-dioxo-1,2,4-triazin-3-yl)thiomethyl]-Δ^3 -O-2-isocephem-4-carboxylic acid (syn-isomer) [Example 17]
- MIC (K. pneumoniae NCTC-9632): ≤ 0.025 µg/mL
- MIC (S. marcescens IFO-12648; [3]): ≤ 0.025 µg/mL
- MIC (P. mirabilis 1287; [1]): ≤ 0.025 µg/mL
- MIC (E. coli No. 29; [2]): ≤ 0.025 µg/mL
- MIC (M. morganii ATCC-25830): ≤ 0.025 µg/mL
- MIC (P. aeruginosa NCTC-10490): 6.25 µg/mL
- MIC (S. aureus FDA-209-p): 0.2 µg/mL

Substance: 7-[2-(2-Chloroacetamidothiazol-4-yl)-2-methoxyiminoacetamido]-3-[(carbamoyloxy)methyl]-Δ^3 -O-2-isocephem-4-carboxylic acid (syn-isomer) [Example 8]
- MIC (K. pneumoniae NCTC-9632): 0.2 µg/mL
- MIC (S. marcescens IFO-12648): 0.39 µg/mL
- MIC (P. mirabilis 1287; [1]): 0.05 µg/mL
- MIC (E. coli No. 29; [2]): 0.2 µg/mL
- MIC (M. morganii ATCC-25830): 0.1 µg/mL
- MIC (P. aeruginosa NCTC-10490): 1.56 µg/mL
- MIC (S. aureus FDA-209-p): 0.78 µg/mL

Substance: 7-[2-(2-Formamidothiazol-4-yl)-2-ethoxyiminoacetamido]-3-[(1,3,4-thiadiazol-2-yl)thiomethyl-]-Δ^3 -O-2-isocephem-4-carboxylic acid (syn-isomer) [Example 31]
- MIC (K. pneumoniae NCTC-9632): 0.1 µg/mL
- MIC (S. marcescens IFO-12648): 0.39 µg/mL
- MIC (P. mirabilis 1287; [1]): ≤ 0.025 µg/mL
- MIC (E. coli No. 29; [2]): ≤ 0.025 µg/mL
- MIC (M. morganii ATCC-25830): 0.05 µg/mL
- MIC (P. aeruginosa NCTC-10490): 25 µg/mL
- MIC (S. aureus FDA-209-p): 0.39 µg/mL

Substance: 7-[2-(2-Trichloroacetamidothiazol-4-yl)-2-methoxyiminoacetamido]-3-[(carbamoyloxy)methyl]-Δ^3 -O-2-isocephem-4-carboxylic acid (syn-isomer) [Example 7]
- MIC (K. pneumoniae NCTC-9632): 0.2 µg/mL
- MIC (S. marcescens IFO-12648): 0.39 µg/mL
- MIC (P. mirabilis 1287; [1]): ≤ 0.025 µg/mL
- MIC (E. coli No. 29; [2]): 0.1 µg/mL
- MIC (M. morganii ATCC-25830): ≤ 0.025 µg/mL
- MIC (P. aeruginosa NCTC-10490): 0.78 µg/mL
- MIC (S. aureus FDA-209-p): 0.78 µg/mL

Substance: 7-[2-(Thiazol-4-yl)-2-carboxymethoxyiminoacetamido]-Δ^3 -O-2-isocephem-4-carboxylic acid (syn-isomer) [No. 6]
- MIC (K. pneumoniae NCTC-9632): 0.2 µg/mL
- MIC (S. marcescens IFO-12648; [3]): 0.2 µg/mL
- MIC (P. mirabilis 1287; [1]): ≤ 0.025 µg/mL
- MIC (E. coli No. 29; [2]): 0.1 µg/mL
- MIC (M. morganii ATCC-25830): 0.05 µg/mL
- MIC (P. aeruginosa NCTC-10490): 12.5 µg/mL
- MIC (S. aureus FDA-209-p): 0.39 µg/mL

Substance: Benzhydryl 7-[2-(2-formamidothiazol-4-yl)-2-methylthiomethoxyiminoacetamido]-3-[(1,3,4-thiadiazol-2-yl)thiomethyl]-Δ^3 -O-2-isocephem-4-carboxylate (syn-isomer) [Example 44]
- MIC (K. pneumoniae NCTC-9632): 0.39 µg/mL
- MIC (S. marcescens IFO-12648): 1.56 µg/mL
- MIC (P. mirabilis 1287): 0.2 µg/mL
- MIC (E. coli No. 29): 0.2 µg/mL
- MIC (M. morganii ATCC-25830): 0.78 µg/mL
- MIC (P. aeruginosa NCTC-10490): 3.13 µg/mL
- MIC (S. aureus FDA-209-p): 0.39 µg/mL

Substance: Benzhydryl 7-[2-(2-tritylaminothiazol-4-yl)-2-(2fluoroethoxy)iminoacetamido-]-3-[(1,3,4-thiadiazol-2-yl)thiomethyl]-Δ^3 -O-2-isocephem-4-carboxylate (syn-isomer) [Example 48]
- MIC (K. pneumoniae NCTC-9632): 0.2 µg/mL
- MIC (S. marcescens IFO-12648): 0.39 µg/mL
- MIC (P. mirabilis 1287; [1]): ≤ 0.025 µg/mL
- MIC (E. coli No. 29; [2]): ≤ 0.025 µg/mL
- MIC (M. morganii ATCC-25830): ≤ 0.025 µg/mL
- MIC (P. aeruginosa NCTC-10490): 6.25 µg/mL
- MIC (S. aureus FDA-209-p): 0.78 µg/mL

Substance: Benzhydryl 7-[2-(2-tritylaminothiazol-4-yl)-2-[(1-tritylpyrazol-3-yl)methoxyiminoacetamido]-3-[(1,3,4-thiadiazol-2-yl)thiomethyl]-Δ^3 -O-2-isocephem-4-carboxylate (syn-isomer) [Example 23]
- MIC (K. pneumoniae NCTC-9632): 0.1 µg/mL
- MIC (S. marcescens IFO-12648): 0.39 µg/mL
- MIC (P. mirabilis 1287; [1]): ≤ 0.025 µg/mL
- MIC (E. coli No. 29; [2]): 0.2 µg/mL
- MIC (M. morganii ATCC-25830): 0.1 µg/mL
- MIC (P. aeruginosa NCTC-10490): 12.5 µg/mL
- MIC (S. aureus FDA-209-p): 6.25 µg/mL

Substance: Benzhydryl 7-[2-(2-tritylaminothiazol-4-yl)-2-[(2-butenyl)oxyimino]acetamido]-3-[(1,3,4-thiadiazol-2-yl)thiomethyl]-Δ^3 -O-2-isocephem-4-carboxylate (syn-isomer) [Example 37]
- MIC (K. pneumoniae NCTC-9632): 0.39 µg/mL
- MIC (S. marcescens IFO-12648; [3]): 1.56 µg/mL
- MIC (P. mirabilis 1287; [1]): 0.2 µg/mL
- MIC (E. coli No. 29; [2]): 0.2 µg/mL
- MIC (M. morganii ATCC-25830): 0.78 µg/mL
- MIC (P. aeruginosa NCTC-10490): 1.56 µg/mL
- MIC (S. aureus FDA-209-p): 0.78 µg/mL

Substance: Benzhydryl 7-[2-(2-tritylaminothiazol-4-yl)-2-cyclopropylmethyloxyiminoacetamido-]-3- (1,3,4-thiadiazol-2-yl)thiomethyl]-Δ^3 -O-2-isocephem-4-carboxylate (syn-isomer) [Example 35]
- MIC (K. pneumoniae NCTC-9632): 0.2 µg/mL
- MIC (S. marcescens IFO-12648): 0.39 µg/mL
- MIC (P. mirabilis 1287; [1]): 0.2 µg/mL
- MIC (E. coli No. 29; [2]): 0.2 µg/mL
- MIC (M. morganii ATCC-25830): 0.39 µg/mL
- MIC (P. aeruginosa NCTC-10490): 0.39 µg/mL
- MIC (S. aureus FDA-209-p): 0.2 µg/mL

Substance: Benzhydryl 7-[2-(2-tritylaminothiazol-4-yl)-2-propargyloxyiminoacetamido]-3-[(1,3,4-thiadiazol-2-yl)thiomethyl]-Δ^3 -O-2-isocephem-4-carboxylate (syn-isomer) [Example 21]
- MIC (K. pneumoniae NCTC-9632): 0.2 µg/mL
- MIC (S. marcescens IFO-12648): 0.39 µg/mL
- MIC (P. mirabilis 1287; [1]): ≤ 0.025 µg/mL
- MIC (E. coli No. 29; [2]): 0.1 µg/mL
- MIC (M. morganii ATCC-25830): 0.05 µg/mL
- MIC (P. aeruginosa NCTC-10490): 3.13 µg/mL
- MIC (S. aureus FDA-209-p): 3.13 µg/mL

From patent US4831026A, “2-oxa-isocephem compounds, compositions containing same and processes of using” (Otsuka Pharmaceutical Co., Ltd., priority 1985, dated 1989)
